Assay results taken from ChEMBL document CHEMBL1201862, “PubChem BioAssay data set” (2004).
Calls of active or inactive are those of the source. For most assays here, no stated cut-off is given here; in the data, actives have a measured EC50 and inactives only a lower limit.

Legend:
[1] = molecular target: T1, Heat shock factor protein 1 (Mus musculus, UniProt P38532); test: HSF1 potentiators in luciferase reporter cells, confirmation, cell-based, NIH3T3, luminescence, dose retest (AID 435004); type: functional;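 further: stress induced by proteasome inhibitor MG132 added 30 min after compound; luciferase reporter driven by HSF1 response element in NIH3T3 cells; actives raise luminescence as potentiators of the MG132 stress response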
T1 sequence (P38532 whole entry): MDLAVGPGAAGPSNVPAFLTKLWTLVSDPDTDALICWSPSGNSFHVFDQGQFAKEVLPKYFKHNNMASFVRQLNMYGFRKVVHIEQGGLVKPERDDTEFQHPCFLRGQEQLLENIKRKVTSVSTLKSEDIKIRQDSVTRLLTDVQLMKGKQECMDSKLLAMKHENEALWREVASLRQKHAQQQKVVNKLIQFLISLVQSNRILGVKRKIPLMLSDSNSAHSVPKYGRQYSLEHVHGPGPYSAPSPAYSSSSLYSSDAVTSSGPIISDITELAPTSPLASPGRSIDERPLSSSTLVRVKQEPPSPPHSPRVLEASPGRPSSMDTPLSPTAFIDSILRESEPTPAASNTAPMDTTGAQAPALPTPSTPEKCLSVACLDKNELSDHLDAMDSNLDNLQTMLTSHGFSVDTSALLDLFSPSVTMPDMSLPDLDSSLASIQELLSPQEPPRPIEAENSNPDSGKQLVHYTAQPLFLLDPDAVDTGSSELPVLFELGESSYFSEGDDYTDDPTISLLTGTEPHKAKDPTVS

[2] = HEp-2 cell cytotoxicity, dose response, cytotoxicity control for RSV inhibitor project, HTS (AID 2410); type: functional; conditions: human respiratory syncytial virus
[3] = molecular target: T2, Microphthalmia-associated transcription factor (Homo sapiens, UniProt O75030); test: TRPM1 promoter luciferase signal decrease, dose response, MITF inhibitor project, cell-based, SK-MEL-5, cherry-picked, set 3 (AID 493073); type: functional
T2 sequence (O75030 whole entry): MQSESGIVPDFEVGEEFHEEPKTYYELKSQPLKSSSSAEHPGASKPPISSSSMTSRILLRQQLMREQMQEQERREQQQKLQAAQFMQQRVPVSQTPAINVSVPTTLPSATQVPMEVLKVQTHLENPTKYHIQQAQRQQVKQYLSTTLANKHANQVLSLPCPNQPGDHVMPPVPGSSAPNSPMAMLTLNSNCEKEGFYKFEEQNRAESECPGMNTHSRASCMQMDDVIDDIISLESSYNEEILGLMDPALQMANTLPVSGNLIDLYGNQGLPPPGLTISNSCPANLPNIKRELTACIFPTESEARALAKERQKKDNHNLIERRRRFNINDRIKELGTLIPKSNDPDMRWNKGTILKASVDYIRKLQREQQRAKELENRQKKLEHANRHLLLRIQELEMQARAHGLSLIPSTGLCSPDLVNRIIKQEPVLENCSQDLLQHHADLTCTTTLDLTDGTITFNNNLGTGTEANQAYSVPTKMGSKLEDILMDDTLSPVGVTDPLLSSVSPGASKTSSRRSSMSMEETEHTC

[4] = cells; type: functional
[5] = C. albicans growth with fluconazole, confirmation, fluorescence, retest (AID 2467); type: functional, cell-based
[6] = NIH-3T3 fibroblast cytotoxicity, dose response, cytotoxicity control, cell-based, fluorescence, Alamar Blue, secondary assay (AID 2327); type: functional;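 further: NIH-3T3 mouse fibroblasts cultured with fluconazole at 8 µg/mL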
[7] = molecular target: Cytochrome P450 2D6 (Homo sapiens, UniProt P10635);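 further: CYP2D6 member of a cytochrome P450 panel assay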
Cytochrome P450 2D6, sequence (P10635 whole entry, the tested form may be a part): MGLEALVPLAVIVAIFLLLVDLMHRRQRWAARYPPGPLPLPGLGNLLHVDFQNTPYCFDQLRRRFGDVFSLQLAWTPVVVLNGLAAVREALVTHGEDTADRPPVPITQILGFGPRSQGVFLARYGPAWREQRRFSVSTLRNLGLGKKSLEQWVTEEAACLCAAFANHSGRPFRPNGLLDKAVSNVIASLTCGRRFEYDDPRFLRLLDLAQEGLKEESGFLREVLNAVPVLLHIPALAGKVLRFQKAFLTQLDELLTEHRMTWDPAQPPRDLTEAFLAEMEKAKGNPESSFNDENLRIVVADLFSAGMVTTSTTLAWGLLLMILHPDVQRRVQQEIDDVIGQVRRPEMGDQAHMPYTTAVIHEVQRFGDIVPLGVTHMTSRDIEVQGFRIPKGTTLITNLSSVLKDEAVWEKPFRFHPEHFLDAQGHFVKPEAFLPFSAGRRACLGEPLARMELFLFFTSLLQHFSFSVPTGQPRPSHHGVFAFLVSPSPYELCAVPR

[8] = inhibitors of clade B AD8 Env fusion, dose response, cell-based, cherry-pick (AID 652062); type: functional;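 further: luciferase signal from cell-cell fusion driven by HIV-1 clade B AD8 Env; potency is for inhibitors of fusion seen as a drop in luminescence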
[9] = molecular target: T3, RNA-binding protein pos-1 (Caenorhabditis elegans, UniProt G5EF15); test: inhibitors of POS-1/mex-3 RNA binding, dose response, biochemical, fluorescence polarization (AID 1964);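 further: purified POS-1 fused to maltose binding protein made in E. coli; potency of compounds blocking POS-1 binding to fluorescent RNA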
T3 sequence (G5EF15 whole entry): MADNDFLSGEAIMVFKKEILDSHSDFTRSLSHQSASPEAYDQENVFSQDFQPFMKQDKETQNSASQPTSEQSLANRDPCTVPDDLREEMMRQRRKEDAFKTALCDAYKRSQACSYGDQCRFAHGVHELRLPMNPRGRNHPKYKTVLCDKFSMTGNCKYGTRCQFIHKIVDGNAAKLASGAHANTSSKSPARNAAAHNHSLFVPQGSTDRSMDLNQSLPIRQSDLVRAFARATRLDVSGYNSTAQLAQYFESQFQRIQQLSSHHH

[10] = molecular target: T4, Corticotropin-releasing factor receptor 2/Corticotropin-releasing factor-binding protein (Homo sapiens, UniProt P24387+Q13324); test: activators of CRF receptor 2 with binding protein – uHTS hits, confirmation (AID 602473); type: functional; conditions: read-out: EC50_Mean
T4 sequence (Q13324 whole entry): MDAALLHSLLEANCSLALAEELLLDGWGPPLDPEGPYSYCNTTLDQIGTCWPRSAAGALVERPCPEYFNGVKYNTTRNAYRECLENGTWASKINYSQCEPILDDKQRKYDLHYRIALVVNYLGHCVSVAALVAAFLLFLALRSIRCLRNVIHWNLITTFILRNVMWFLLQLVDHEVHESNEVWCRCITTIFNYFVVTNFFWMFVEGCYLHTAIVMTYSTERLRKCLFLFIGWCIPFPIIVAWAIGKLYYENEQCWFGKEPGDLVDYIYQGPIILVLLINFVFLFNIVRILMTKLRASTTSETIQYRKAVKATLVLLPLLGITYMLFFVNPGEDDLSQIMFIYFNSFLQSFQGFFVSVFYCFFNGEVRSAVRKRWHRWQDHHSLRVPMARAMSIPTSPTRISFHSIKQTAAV
T4 sequence (P24387 whole entry): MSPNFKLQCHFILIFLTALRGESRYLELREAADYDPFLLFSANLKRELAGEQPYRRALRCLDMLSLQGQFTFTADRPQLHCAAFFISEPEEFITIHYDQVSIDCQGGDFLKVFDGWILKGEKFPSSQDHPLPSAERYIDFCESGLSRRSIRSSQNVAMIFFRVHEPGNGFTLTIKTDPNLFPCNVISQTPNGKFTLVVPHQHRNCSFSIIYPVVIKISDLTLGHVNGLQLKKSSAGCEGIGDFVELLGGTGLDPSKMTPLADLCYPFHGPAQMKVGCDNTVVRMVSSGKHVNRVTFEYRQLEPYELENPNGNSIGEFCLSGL

[11] = molecular target: T5, Zinc finger protein mex-5 (Caenorhabditis elegans, UniProt Q9XUB2); test: MEX-5/TCR-2 RNA interaction inhibitors, dose response, biochemical, C. elegans, fluorescence polarization (AID 1960)
T5 sequence (Q9XUB2 whole entry): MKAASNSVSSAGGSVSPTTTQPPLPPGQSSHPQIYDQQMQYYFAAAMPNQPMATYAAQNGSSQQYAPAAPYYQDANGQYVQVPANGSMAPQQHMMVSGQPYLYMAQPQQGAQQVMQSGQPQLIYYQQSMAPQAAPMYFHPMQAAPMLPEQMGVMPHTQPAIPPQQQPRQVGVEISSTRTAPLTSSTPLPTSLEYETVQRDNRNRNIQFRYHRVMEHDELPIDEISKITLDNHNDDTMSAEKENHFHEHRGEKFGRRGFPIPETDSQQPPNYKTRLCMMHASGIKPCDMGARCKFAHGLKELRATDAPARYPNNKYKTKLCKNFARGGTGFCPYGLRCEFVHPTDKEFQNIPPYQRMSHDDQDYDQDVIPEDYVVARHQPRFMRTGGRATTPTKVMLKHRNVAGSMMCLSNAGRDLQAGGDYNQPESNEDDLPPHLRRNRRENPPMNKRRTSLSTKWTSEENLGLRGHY

[12] = cytotoxicity toward NIH3T3 fibroblasts, dose response, counter-screen, cell-based, ATP luminescence, mouse fibroblasts (AID 2010); type: functional;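 further: cells exposed to compound for about 90 hours before reading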
[13] = inhibitors of intracellular T. cruzi replication, confirmation, NIH3T3 host cells, beta-gal luminescence (AID 2044); type: functional, cell-based;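 further: intracellular parasites grown in NIH/3T3 mouse fibroblasts as host cells; luminescent beta-galactosidase reporter signal from transgenic T. cruzi replicating inside host cells; inhibitors lower the luminescence signal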

O=C(CCCSc1nc2ccccc2[nH]1)N1CCN(c2ccc([N+](=O)[O-])cc2)CC1
EC50 [1]: > 260 µM (inactive)

CCCCN1CCc2c1nc1ccc(Br)cc1c2N
CC50 [2]: 14.1 µM (active)
AC50 [3]: 12.2 µM (active)

O=C(OCc1nc2ccccc2s1)c1ccc(Br)o1
IC50 [4]: 11.9 µM (active)

O=C(/C=C/c1ccc([N+](=O)[O-])s1)N1CCCCC1
AC50 [3]: 4.16 µM (active)

Cc1cccc(N2C(=O)NC(=O)/C(=C/Nc3ccccc3N)C2=O)c1
EC50 [5]: > 38 µM (not active)
EC50 [6]: > 160 µM (inactive)

Cc1cccc(NC(=O)CCSc2nnc(Cc3ccccc3)o2)c1
IC50 [4]: 39.8 µM (active)

CC(c1ccc(Cl)cc1)n1c(S)nnc1-c1ccc2ccccc2n1 (configuration not stated)
EC50 [5]: 4.24 µM (active)
EC50 [6]: > 160 µM (inactive)
AC50 [7]: 39.8 µM (inconclusive)

Cn1c(CN2CCCCC2)nc2cc(NC(=O)c3ccc(Cl)cc3)ccc21
AC50 [8]: 28.7 µM (active)
AC50 [7]: 0.0316 µM (inconclusive)

O=C(Nc1nc2ccccc2[nH]1)c1ccc(OC(F)F)cc1
EC50 [1]: > 260 µM (inconclusive)

CCOC(=O)c1sc(C)c2c1NC(C)(c1cccc3ccccc13)NC2=O (configuration not stated)
EC50 [1]: > 260 µM (inactive)

Clc1ccccc1-c1nc2ccccc2c2nc3ccccc3n12
EC50 [5]: 12.2 µM (active)
EC50 [6]: > 150 µM (inactive)

Cc1ccc(C)c(S(=O)(=O)Nc2ccccc2C(=O)Nc2cc(C)on2)c1
EC50 [5]: 1.28 µM (active)
EC50 [6]: > 160 µM (inactive)

Cn1c(=O)oc2cc(S(=O)(=O)N3CCCCC3)ccc21
EC50 [1]: > 260 µM (inactive)

Cc1ccccc1NC(=O)CSc1nc(Nc2ccccc2)nc(N2CCOCC2)n1
EC50 [1]: > 260 µM (inactive)

CC(=O)NC(=O)NC1OC(=O)C(Cl)=C1Cl (configuration not stated)
EC50 [1]: > 260 µM (inconclusive)

CSc1nn(-c2ccc(C(=O)OCC(=O)NC(=O)NC(C)C)cc2)c(=S)s1
IC50 [4]: 13.2 µM (active)

CC(=O)c1cc(NC(=O)c2ccc(Cl)cc2)c(=O)oc1/C=C/N(C)C
EC50 [9]: 57.3 µM (active)
EC50 [10]: 5 µM (active)
EC50 [11]: 4.07 µM (active)

O=C(N/N=C\C=C\c1ccco1)c1cncc(Br)c1
IC50 [4]: > 50 µM (active)

Cc1ccsc1/C=N/NC(=O)c1ccncc1
IC50 [4]: 3.02 µM (active)

COc1cccc2s/c(=N/C(=O)CS(=O)(=O)c3ccc(Cl)cc3)n(C)c12
EC50 [5]: 2.16 µM (active)
EC50 [6]: > 160 µM (inactive)
EC50 [12]: > 60 µM (not active)
EC50 [13]: 0.34 µM (active)
